The source of these data is patent publication US20170001990A1 (Genentech, Inc., priority 2014, published 2017).

Structures are written as SMILES.

For this experiment, the target named is Human recombinant carboxy-terminal his-tagged LDHA (amino acids 2-332) (Homo sapiens, UniProt P00338). Briefly: LDHA enzyme inhibition assay (NADH fluorescence). The settings on record: LDHA IC50 (μM), 1 nM LDHA, NADH and pyruvate, stereochemistry of tested sample given.
By IC50 is commonly meant the concentration at which inhibition is half-maximal. For `O=C1CC(c2ccsc2)(c2cccc(OCC3CCOCC3)n2)NC(=O)C1Sc1ccccc1Cl` (single isomer, unassigned) [Example 187, 3-(2-chlorophenyl)sulfanyl-6-[6-(tetrahydropyran-4-ylmethoxy)-2-pyridyl]-6-(3-thienyl)piperidine-2,4-dione], the IC50 was 0.025 µM.

Take `O=C1CCC(COc2cccc(C3(c4ccsc4)CC(=O)C(Sc4ccccc4Cl)C(=O)N3)n2)O1` (single isomer, unassigned) [Example 192, 3-(2-chlorophenyl)sulfanyl-6-[6-[(5-oxotetrahydrofuran-2-yl)methoxy]-2-pyridyl]-6-(3-thienyl)piperidine-2,4-dione]: the 50% inhibitory concentration (IC50) worked out at 0.232 µM.

With `O=C1CCC(COc2cccc(C3(c4ccsc4)CC(=O)C(Sc4ccccc4Cl)C(=O)N3)n2)O1` (single isomer, unassigned) [Example 193, 3-(2-chlorophenyl)sulfanyl-6-[6-[(5-oxotetrahydrofuran-2-yl)methoxy]-2-pyridyl]-6-(3-thienyl)piperidine-2,4-dione], the IC50 was found to be 0.059 µM.

Consider `O=C1CC(c2ccsc2)(c2cccc(OCC3CCCC3)n2)NC(=O)C1Sc1ccccc1Cl` (single isomer, unassigned) [Example 194, 3-(2-chlorophenyl)sulfanyl-6-[6-(cyclopentyl-methoxy)-2-pyridyl]-6-(3-thienyl)piperidine-2,4-dione], for which the half-inhibitory concentration (IC50) was determined as 0.005 µM.

For the compound `O=C1CC(c2ccsc2)(c2cccc(OCC3CCCO3)n2)NC(=O)C1Sc1ccccc1Cl` (single isomer, unassigned) [Example 195, 3-(2-chlorophenyl)sulfanyl-6-[6-(tetrahydrofuran-2-ylmethoxy)-2-pyridyl]-6-(3-thienyl)piperidine-2,4-dione], the IC50 amounted to 0.143 µM.

Consider `O=C1CC(c2ccsc2)(c2cccc(OCC3CC(F)(F)C3)n2)NC(=O)C1Sc1ccccc1Cl` (single isomer, unassigned) [Example 196, 3-(2-chlorophenyl)sulfanyl-6-[6-[(3,3-difluorocyclo-butyl)methoxy]-2-pyridyl]-6-(3-thienyl)piperidine-2,4-dione], for which the IC50 is 0.036 µM.

For the compound `O=C1CC(c2ccsc2)(c2cccc(Oc3ccccc3Br)n2)NC(=O)C1Sc1ccccc1Cl` (single isomer, unassigned) [Example 197, 6-[6-(2-bromophenoxy)-2-pyridyl]-3-(2-chlorophenyl) sulfanyl-6-(3-thienyl) piperidine-2,4-dione], the IC50 is 0.01 µM.

Take `O=C1CC(c2ccsc2)(c2cccc(Sc3ccc(F)cc3)n2)NC(=O)C1Sc1ccccc1Cl` (single isomer, unassigned) [Example 198, 3-(2-chlorophenyl)sulfanyl-6-[6-(4-fluorophenyl)sulfanyl-2-pyridyl]-6-(3-thienyl)piperidine-2,4-dione]: the IC50 worked out at 0.177 µM.

On to `O=C1CC(c2ccsc2)(c2cccc(OCC3COC3)n2)NC(=O)C1Sc1ccccc1Cl` (single isomer, unassigned) [Example 199, 3-(2-chlorophenyl)sulfanyl-6-[6-(oxetan-3-ylmethoxy)-2-pyridyl]-6-(3-thienyl) piperidine-2,4-dione], for which the IC50 turned out to be 0.012 µM.

Consider `CCOCCOc1cccc(C2(c3ccsc3)CC(=O)C(Sc3ccccc3Cl)C(=O)N2)n1` (single isomer, unassigned) [Example 200, 3-(2-chlorophenyl)sulfanyl-6-[6-(2-ethoxyethoxy)-2-pyridyl]-6-(3-thienyl) piperidine-2,4-dione], for which the IC50 amounted to 0.229 µM.

For `COCCCOc1cccc(C2(c3ccsc3)CC(=O)C(Sc3ccccc3Cl)C(=O)N2)n1` (single isomer, unassigned) [Example 201, 3-(2-chlorophenyl)sulfanyl-6-[6-(3-methoxypropoxy)-2-pyridyl]-6-(3-thienyl) piperidine-2,4-dione], the 50% inhibitory concentration (IC50) came out at 0.037 µM.

On to `O=C1CC(c2ccsc2)(c2cccc(Oc3cncc(F)c3)n2)NC(=O)C1Sc1ccccc1Cl` (single isomer, unassigned) [Example 202, 3-(2-chlorophenyl)sulfanyl-6-[6-[(5-fluoro-3-pyridyl)oxy]-2-pyridyl]-6-(3-thienyl) piperidine-2,4-dione], for which the half-maximal inhibitory concentration (IC50) worked out at 0.018 µM.

Consider `O=C1CC(c2ccsc2)(c2cccc(Cc3ccccc3)n2)NC(=O)C1Sc1ccccc1Cl` (single isomer, unassigned) [Example 204, 6-(6-benzyl-2-pyridyl)-3-(2-chlorophenyl)sulfanyl-6-(3-thienyl)piperidine-2,4-dione], for which the IC50 is 0.007 µM.

For `O=C1CC(c2ccsc2)(c2cccc(OC3CCCCC3)n2)NC(=O)C1Sc1ccccc1Cl` (single isomer, unassigned) [Example 205, 3-(2-chlorophenyl)sulfanyl-6-[6-(cyclohexoxy)-2-pyridyl]-6-(3-thienyl) piperidine-2,4-dione], the IC50 came out at 0.058 µM.

For `CC1(COc2cccc(C3(c4ccsc4)CC(=O)C(Sc4ccccc4Cl)C(=O)N3)n2)CC1` (single isomer, unassigned) [Example 206, 3-(2-chlorophenyl)sulfanyl-6-[6-[(1-methylcyclopropyl)methoxy]-2-pyridyl]-6-(3-thienyl)piperidine-2,4-dione], the IC50 turned out to be 0.027 µM.

`CC(Oc1cccc(C2(c3ccsc3)CC(=O)C(Sc3ccccc3Cl)C(=O)N2)n1)C1CC1` (single isomer, unassigned) [Example 207, 3-(2-chlorophenyl)sulfanyl-6-[6-(1-cyclopropylethoxy)-2-pyridyl]-6-(3-thienyl) piperidine-2,4-dione]: the half-maximal inhibitory concentration (IC50) was determined as 0.02 µM.

Consider `O=C1CC(c2ccsc2)(c2cccc(OCCC3CCCCC3)n2)NC(=O)C1Sc1ccccc1Cl` (single isomer, unassigned) [Example 208, 3-(2-chlorophenyl)sulfanyl-6-[6-(2-cyclohexylethoxy)-2-pyridyl]-6-(3-thienyl) piperidine-2,4-dione], for which the IC50 was 0.149 µM.

Regarding `O=C1CC(c2ccsc2)(c2cccc(OCC3CCOCC3)n2)NC(=O)C1Sc1ccccc1Cl` (single isomer, unassigned) [Example 209, 3-(2-chlorophenyl)sulfanyl-6-[6-(tetrahydropyran-4-ylmethoxy)-2-pyridyl]-6-(3-thienyl)piperidine-2,4-dione], the half-inhibitory concentration (IC50) was determined as 0.006 µM.

Turning to `O=C1CCC(COc2cccc(C3(c4ccsc4)CC(=O)C(Sc4ccccc4Cl)C(=O)N3)n2)O1` (single isomer, unassigned) [Example 212, 3-(2-chlorophenyl)sulfanyl-6-[6-[(5-oxotetrahydrofuran-2-yl)methoxy]-2-pyridyl]-6-(3-thienyl)piperidine-2,4-dione], the IC50 amounted to 0.03 µM.

Turning to `O=C1CC(c2ccsc2)(c2cccc(Sc3ccc(F)cc3)n2)NC(=O)C1Sc1ccccc1Cl` (single isomer, unassigned) [Example 213, 3-(2-chlorophenyl)sulfanyl-6-[6-(4-fluorophenyl)sulfanyl-2-pyridyl]-6-(3-thienyl)piperidine-2,4-dione], the IC50 amounted to 0.034 µM.

`CC(Oc1cccc(C2(c3ccsc3)CC(=O)C(Sc3ccccc3Cl)C(=O)N2)n1)C1CC1` (single isomer, unassigned) [Example 214, 3-(2-chlorophenyl)sulfanyl-6-[6-(1-cyclopropyl-ethoxy)-2-pyridyl]-6-(3-thienyl)piperidine-2,4-dione]: the half-maximal inhibitory concentration (IC50) came out at 0.017 µM.
